What was measured:
[1] = test system: NFκB-DNA binding activity; assay: NFκB-DNA binding by electrophoretic mobility shift assay (EMSA); assay type: in vivo; conditions: prior application of Lupeol to mouse skin
Protocol: (b) At different times after treatment, the animals were sacrificed, nuclear lysates were prepared, and DNA binding was determined by […] as described under ‘Materials and Methods’. C1, C2, and C3 refer to inter experimental controls, where C1 represents biotin-EBNA (epistein barr virus nuclear antigen) control DNA, C2 represents Biotin-EBNA control DNA and EBNA extract and C3 represents Biotin-EBNA control DNA and EBNA extract plus 200 fold molar excess of EBNA DNA.
Epidermis from the whole skin was separated as described earlier (Katiyar et al., 1999) and was homogenized in ice-cold lysis buffer [50 mM Tris-HCl, 150 mM NaCl, 1 mM EGTA, 1 mM EDTA, 20 mM NaF, 100 mM Na3VO4, 0.5% NP-40, 1% Triton X-100, 1 mM PMSF (pH 7.4)] with freshly added protease inhibitor cocktail, Protease Inhibitor Cocktail Set III (Calbiochem, La Jolla, Calif., USA). […] The protein content in the lysates was measured by DC BioRad assay (BioRad Laboratories, Hercules, Calif.) as per the manufacturer's protocol.
EMSA for NFκB was performed using Lightshift™ chemiluminescent EMSA kit (Pierce, Rockford, Ill., USA) by following the manufacturer's protocol. […] The biotin end-labeled DNA was detected using streptavidin-horseradish peroxidase conjugate and a chemiluminescent substrate. […]

[2] = test system: normal human prostate epithelial cells (PrEC); assay: Viability of normal human prostate epithelial cells, MTT assay; assay type: cell-based; conditions: 48 hours
Protocol: FIG. 9 depicts effect of Lupeol on viability of normal human prostate epithelial cells (PrEC). Cells were treated with specified concentrations of Lupeol for 48 h, and cell viability was determined by MTT (3-[4,5-dimethylthiazol-2-yl]-2,5-diphenyl tetrazoliumbromide) assay. The values are represented as the percent viable cells where vehicle-treated cells were regarded as 100% viable. Data represents mean value of percent viable cells±S.E of three independent experiments.

Fas receptor protein = assay: Fas receptor expression in LNCaP cells treated with Lupeol plus anti-Fas mAb (western blot); assay type: cell-based, human; conditions: anti-Fas mAb pretreated LNCaP cells treated with Lupeol
Protocol: FIG. 16 depicts cells that were treated with vehicle (DMSO+alcohol) only or specified concentrations of Lupeol alone, anti-Fas mAb or with combination (Lupeol+anti-Fas mAb) for 48 h, harvested and total cell lysates were prepared. The expression of Fas receptor protein in total cell lysate was determined by western blot analysis. Equal loading was confirmed by stripping immunoblots and reprobing them for β-actin. The immunoblots shown here are representative of three independent experiments with similar results.

[3] = test system: I-κBα protein and p65-subunit of NFκB in AsPC-1 cells; assay: Phosphorylation of IκBα and NFκB p65 in AsPC-1 cells; assay type: cell-based
From the text: FIG. 24 depicts effect of Lupeol treatment on the phosphorylation of I-κBα protein and p65-subunit of NFκB transcriptional factor in AsPC-1 cells.

mouse ear = conditions: Nikiema et al., 2001; cited from earlier work

Compound: C=C(C)[C@@H]1CC[C@]2(C)CC[C@]3(C)[C@H](CC[C@@H]4[C@@]5(C)CC[C@H](O)C(C)(C)[C@@H]5CC[C@]43C)[C@@H]12 [Lupeol, Lup-20(29)-en-3β-ol]
- TPA-induced epidermal NFκB DNA binding activity [1]: significantly inhibited
- cell death of normal prostate epithelial cells ([2]; 60 μM Lupeol): 30%
- cell death of normal prostate epithelial cells ([2]; Lupeol up to 50 μM): did not exhibit any significant cell death
- Fas protein expression (Fas receptor protein): highly increased
- phosphorylation of IkBα [3]: significant reduction
- phosphorylation of NFkB [3]: reduction in the phosphorylation of NFkB
- protection against croton oil induced edema in mouse ear (mouse ear): more efficacy than indomethacin

— patent US8618082B2, “Lupeol anti-tumor agent and uses thereof” (Wisconsin Alumni Research Foundation, priority 2004, dated 2013)
